Results from patent EP2845588A1, “PIN1 inhibitors for use in the prevention and/or treatment of theileriosis, and related applications” (Centre National de la Recherche Scientifique (CNRS), priority 2013, dated 2015).

Key:
Assay type in all cases: cell-based, bovine
[1] = tested on: parasite-infected cells (Theileria annulata - TBL3); assay: Cell viability XTT assay, TBL3
Method: (§1) All infected bovine cell lines used in this study were previously described: TBL3 cells were derived from in vitro infection of the spontaneous bovine-B lymphosarcoma cell line, BL3, with Hissar stock of T.annulata. The TpMD409 lymphocyte cell line are infected with T. parva. The culture conditions of these cell lines were previously described by Moreau et al., 1999. Cells were cultured in RPMI 1640 (Gibco-BRL, Paisley, UK), supplemented with 10% heat-inactivated Fetal calf serum, 4mM L-Glutamine, 25mM HEPES, 10µM β-mercaptoethanol and 100µg/ml penicillin/streptomycin in a humidified 5%CO2 atmosphere at 37°C. HepG2, NIH/3T3 and MEF cells lines were cultured in DMEM (Gibco-BRL, Paisley, UK), supplemented with 10% heat-inactivated Fetal calf serum, 4mM L-Glutamine, 25 mM HEPES, 10µM β-mercaptoethanol and 100µg/ml penicillin/streptomycin in a humidified 5% CO2 atmosphere at 37°C. Cell numbers, as judged by Trypan Blue exclusion test, were determined by counting cells using a Countess automated cell counter (Invitrogen, CA, USA). The anti-parasite drug Buparvaquone (BW720c) was used at 200ng/ml for 72 hours. BW720c has no effect on growth of uninfected cells. […]

[2] = tested on: Parasite-infected TBL3 cells; assay: Cell proliferation, live cell count after trypan blue exclusion, TBL3; conditions: live cells counted after trypan blue exclusion
Method: as §1

[3] = tested on: non-parasitized BL3 cells; assay: Cell proliferation, live cell count after trypan blue exclusion, BL3; conditions: BL3 / uninfected cells
Method: All infected bovine cell lines used in this study were previously described: TBL3 cells were derived from in vitro infection of the spontaneous bovine-B lymphosarcoma cell line, BL3, with Hissar stock of T.annulata. The TpMD409 lymphocyte cell line are infected with T. parva. The culture conditions of these cell lines were previously described by Moreau et al., 1999. Cells were cultured in RPMI 1640 (Gibco-BRL, Paisley, UK), supplemented with 10% heat-inactivated Fetal calf serum, 4mM L-Glutamine, 25mM HEPES, 10µM β-mercaptoethanol and 100µg/ml penicillin/streptomycin in a humidified 5%CO2 atmosphere at 37°C. HepG2, NIH/3T3 and MEF cells lines were cultured in DMEM (Gibco-BRL, Paisley, UK), supplemented with 10% heat-inactivated Fetal calf serum, 4mM L-Glutamine, 25 mM HEPES, 10µM β-mercaptoethanol and 100µg/ml penicillin/streptomycin in a humidified 5% CO2 atmosphere at 37°C. Cell numbers, as judged by Trypan Blue exclusion test, were determined by counting cells using a Countess automated cell counter (Invitrogen, CA, USA). The anti-parasite drug Buparvaquone (BW720c) was used at 200ng/ml for 72 hours. BW720c has no effect on growth of uninfected cells.
Cells were treated with either Juglone at 5 µM resuspended in Ethanol (Sigma, St Louis, MO, Ref.: H47003), or PiB at 1 µM resuspended in DMSO (Sigma, Ref.: B7688), or Dimethyloxalylglycine DMOG at 0.5 mM resuspended in DMSO (Tebu-bio, MO, USA).

[4] = tested on: Parasite-infected TBL3 cells; assay: Soft agar colony forming assay, TBL3; conditions: colonies counted 10 days after plating
Method: as §1, with “HepG2, NIH/3T3 and MEF cells lines were cultured in DMEM (Gibco-BRL, Paisley, UK), supplemented with 10% heat-inactivated Fetal calf serum, 4mM L-Glutamine, 25 mM HEPES, 10µM β-mercaptoethanol and 100µg/ml penicillin/streptomycin in a humidified 5% CO2 atmosphere at 37°C.” left out, “USA).” for “USA). The anti-parasite drug Buparvaquone (BW720c) was used at 200ng/ml for 72 hours. BW720c has no effect on growth of uninfected cells.”
(§2) A two-layer soft agar culture system was used. […] Cultures were incubated in humidified 37°C incubators with an atmosphere of 5%CO2 in air, and control plates were monitored for growth using a microscope. At the time of maximum colony formation (10 days in culture), final colony numbers were counted manually after fixation a staining with 0.005% Crystal Violet (Sigma, Ref.: C3886).

TpMD409 cells = assay: Soft agar colony forming assay, TpMD409; conditions: colonies counted 10 days after plating
Method: as §1, with “HepG2, NIH/3T3 and MEF cells lines were cultured in DMEM (Gibco-BRL, Paisley, UK), supplemented with 10% heat-inactivated Fetal calf serum, 4mM L-Glutamine, 25 mM HEPES, 10µM β-mercaptoethanol and 100µg/ml penicillin/streptomycin in a humidified 5% CO2 atmosphere at 37°C.” left out, “USA).” for “USA). The anti-parasite drug Buparvaquone (BW720c) was used at 200ng/ml for 72 hours. BW720c has no effect on growth of uninfected cells.”
as §2

[5] = tested on: FBW7 and c-Jun in TBL3 cells; assay: Immunoblot of FBW7 and c-Jun protein in TBL3 cells
Method: Total proteins were extracted with Laemmli lysis, sonicated: 15 secs ON / 30 secs OFF for 5 min, resolved on 10.5% acrylamide/bis-acrylamide SDS-PAGE gels and transferred to nitrocellulose membranes (Thermo Fisher Scientific, MA, USA) in transfer buffer. Protein transfer was assessed by Ponceau-red staining. Membranes were blocked in Tris-buffered saline pH7.4 containing 0.1% Tween-20 and 5% milk for 1 h at room temperature. Incubations with primary antibodies were carried out at 4°C overnight using antibody dilutions as manufacturer recommendations in Trisbuffered saline pH7.4, 0.05% Tween-20 and 5% milk. Following 1 h incubation with an anti-rabbit or anti-mouse peroxidase-conjugated antibody (Sigma, St Louis, MO, USA) at room temperature, proteins were detected by chemiluminescence (Thermo Fisher Scientific, MA, USA) following the manufacturer's instructions. The following antibodies were used: Rabbit anti-TaPIN (Home-made antibody, Proteogenix, Peptide used: […]-Cys), rabbit anti-PIN1 (Cell Signaling, Ref: 3722), rabbit anti-TaActin (kindly provided by Jake Baum, Australia), rabbit anti-c-Jun (Santa Cruz, CA, USA Ref: sc1694), mouse anti-αTubulin (Sigma, Ref: T9026), , rabbit anti-HIF1α (Abcam, Cambridge, UK; Ref: ab75918), rabbit anti-Hexokinase II (Cell Signaling, Ref: C64G5), rabbit anti-PDK1 (Cell signaling, Ref: C47H1), mouse anti-HA (Roche, Ref: 11583816001), rabbit anti-FBW7 (Bethyl Laboratories, Ref: A301-721A), rabbit anti-Histone H3 (Abcam, Ref: ab1791), rabbit anti-PKM2 (Abcam, Ref: ab38237), mouse anti-Actin (Sigma, Ref: A1978) and monoclonal anti-FLAG M2-Peroxidase (Sigma, Ref: A8592). c-Jun, FBW7 or PKM2/Actin ratios were calculated after Western blot signal quantification with the Plot Lanes Analysis tool of Image J software (National Institutes of Health, Bethesda, MD, USA).

[6] = tested on: FBW7 and c-Jun mRNA in TBL3 cells; assay: RT-qPCR of FBW7 and c-Jun mRNA in TBL3 cells
Method: (§3) Total cellular RNAs were extracted using an RNeasy Plus Mini Kit (Qiagen, Hilden, Germany) and parasite RNAs were extracted using the classical Trizol Protocol. cDNA synthesis was performed with the Reverse Transcriptase Superscript III (Invitrogen, CA, USA).
(§4) Quantitative PCR amplification was performed in the ABI 7500 machine (Applied Biosystems, CA, USA) using the Sybr Green reagent (Applied Biosystems, CA, USA) using the primers listed in Table 5 below. The detection of a single product was verified by dissociation curve analysis. Relative quantities of mRNA were analyzed using the delta Ct method. The βactin qPCR was used for normalization. Table 5: qPCR primers

[7] = tested on: transcripts encoding glycolytic enzymes; assay: Expression of transcripts encoding glycolytic enzymes in Theileria-infected cells
Method: as §3, §4

SMILES	viability of parasite-infected cells ([1]; TBL3, 72h, XTT assay)	cell proliferation [2]	proliferation of non-parasitized cells [3]	transformed phenotype, colonies in soft agar [4]	transformed phenotype, colonies in soft agar (TpMD409 cells)	FBW7 protein [5]	c-Jun levels [5]	mRNA expression [6]	expression of the transcripts encoding glycolytic enzymes [7]	drug-induced decrease in glycolytic enzyme expression on overexpression of the TaPIN A53P mutant ([7]; overexpression of TaPIN A53P)	host cell viability ([1]; PiB, infected cell line not given)
CC(C)(C)C1CCC(CC2=C(O)C(=O)c3ccccc3C2=O)CC1 (stereo not shown) [Buparvaquone, 2-((4-tert-butylcyclohexyl)methyl)-3-hydroxy-1,4-naphthoquinone]	decreased the viability	reduced	no effect	reversed the transformed phenotype	reversed the transformed phenotype	induced	reduced	no effect	reduced expression	reversed	–
CCOC(=O)CN1C(=O)c2ccc3c4c(ccc(c24)C1=O)C(=O)N(CC(=O)OCC)C3=O [PiB, benzo[Imn][3,8]phenanthroline-2,7-diacetic acid, 1,3,6,8-tetrahydro-1,3,6,8-tetraoxo-, diethyl ester]	–	affects TBL3 cell proliferation	no effect	reduced	reduced	induced	reduced	no effect	reduced expression	–	reduced
